Data reported in patent US8048924B2, “Methods and compositions employing 4-aminophenylacetic acid compounds” (Biocon Limited, priority 2001, dated 2011).
“Also recorded” adds a separate entry of the source.

Tests used:
[1] = tested on: Clostridium difficile toxin A-induced colitis; experiment: Toxin A-induced colitis, chronic oral administration in drinking water for 5 days; type: in vivo, Sprague-Dawley rats; settings: for doses that significantly inhibited toxin A-induced colitis: chronically for 5 days in drinking water, doses tested 1-100; for potency relative to sulfasalazine for inhibiting toxin A-induced colitis: chronic oral, dose-response studies
Procedure: Eighteen adult male Sprague-Dawley rats weighing 175-222 grams were divided into 3 groups each consisting of 6 animals: • 4-APAA (AA-002) 100 mg/kg orally+Toxin A (10 μg) injected into the lumen of the colon • Vehicle (DW) orally+Toxin A (10 μg) injected into the lumen of the colon • Vehicle (DW) orally
Following 5 days of 4-APAA administration in drinking water, both ketamine (67 mg/kg) and xylazine (33 mg/kg) were administered, an isolated colonic segment was surgically created, and 10 μg of Clostridium difficile toxin A was injected into the lumen of the colon. After 3 hours, the rats were euthanized and colonic inflammation was assessed by quantitating luminal fluid accumulation and myeloperoxidase (MPO) content in the colon tissue. In addition, histological evaluation of the treated colon segments was completed.
(§1) Drug Administration. In studies using chronic administration, sulfasalazine, APAZA™, and 4-APAA were administered in the drinking water at doses ranging from 0.1-100 mg/kg·d for 5 days. Sulfasalazine and APAZA™ were initially dissolved in 0.1 N NaOH at 30 times the desired final concentration and then the pH was adjusted to 8.5 with 1 N HCl and the solution was diluted 30-fold with distilled water. 4-APAA was dissolved in water. On the fifth day, the rats were fasted overnight (with access to their drinking water±sulfasalazine, APAZA™, or 4-APAA ad lib), anesthetized, and isolated colonic segments were surgically created as described below. In studies using acute administration, the rats were pretreated by injection of 4-APAA at doses of 10 or 100 μg in 200 μl of PBS (pH 7.4) into the lumen of the colonic segment using a 27 ga syringe needle. Toxin A (10 μg) in 200 μl of PBS (pH 7.4) was tested alone or injected into the lumen of the colonic segment 30 minutes after 4-APAA using a 27 ga syringe needle.
(§2) Surgery. Isolated colonic segments were created in male Sprague-Dawley rats (150-175 g) as described previously for isolated ileal segments (see, Gastroenterol. 111: 1272-1280 (1996) and Proc. Natl. Acad. Sci. USA 91: 947-951 (1994). Rats fasted overnight with free access to drinking water were anesthetized by intramuscular injection of 67 mg/kg ketamine:33 mg/kg xylazine. A midline abdominal incision was made and colonic segments 5 cm in length were created by ligation with 4-0 silk sutures, taking care not to disturb the vascular supply. Toxin A (10 μg) in 400 μl of PBS (pH 7.4) was injected into the lumen of the colonic segment using a 27 ga syringe needle. Control rats were prepared similarly and their colonic segments were injected with the vehicles. The midline incision was then closed with a running suture, and the rats were placed on a heating pad at 37° C. for 3 hours. After 3 hours, the rats were euthanized and samples of the treated colonic segments were taken for analysis in vitro.
(§3) Histopathology. The severity of colonic histological damage was assessed using formalin-fixed, paraffin-embedded, H&E-stained sections.
(§4) Luminal Fluid Accumulation. Luminal fluid accumulation was measured gravimetrically. After 3 hours of treatment, the isolated colonic segments were removed, weighed, and their lengths were measured. Luminal fluid accumulation is expressed as mg wet weight per cm length.
Myeloperoxidase Activity. Myeloperoxidase (MPO) activity was measured as described previously (see, J. Invest. Dermatol. 78: 206-209 (1982)). Briefly, pieces of control and treated colonic segments were homogenized in 0.5% hexadecyltrimethylammonium bromide in 50 mM KH2PO4 (pH 6), freeze/thawed three times, centrifuged at 4° C. for 2 minutes, and then the absorbance of each supernatant was read at 460 nm at 0, 30, and 60 seconds after the addition of 2.9 ml of o-dianisidine dihydrochloride to 0.1 ml supernatant. The maximal change in absorbance per minute was used to calculate the units of MPO activity based on the molar absorbency index of oxidized o-dianisidine of 1.13×10^4 M^−1 cm^−1. […]

[2] = tested on: Clostridium difficile toxin A-induced colitis; experiment: Toxin A-induced colitis, acute intraluminal pretreatment of isolated colonic segment; type: in vivo, Sprague-Dawley rats; settings: for toxin A-induced structural damage of the colon (H&E) / percent inhibition of toxin A-induced MPO activity / percent inhibition of toxin A-induced luminal fluid accumulation: 30 minutes before toxin A; for relative potency and interaction for inhibition of acute toxin A-induced colitis: given alone versus together
Procedure: as §1, §2, §3, §4
Myeloperoxidase Activity. Myeloperoxidase (MPO) activity was measured as described previously (see, J. Invest. Dermatol. 78: 206-209 (1982)). Briefly, pieces of control and treated colonic segments were homogenized in 0.5% hexadecyltrimethylammonium bromide in 50 mM KH2PO4 (pH 6), freeze/thawed three times, centrifuged at 4° C. for 2 minutes, and then the absorbance of each supernatant was read at 460 nm at 0, 30, and 60 seconds after the addition of 2.9 ml of o-dianisidine dihydrochloride to 0.1 ml supernatant. The maximal change in absorbance per minute was used to calculate the units of MPO activity based on the molar absorbency index of oxidized o-dianisidine of 1.13×10^4 M^−1 cm^−1. The results are expressed as MPO units of activity per mg of tissue wet weight.
Adult male Sprague-Dawley rats (175-225 grams body weight) were purchased from Charles River Labs (Raleigh, N.C.). 4-APAA and 5-ASA were separately injected into the lumen of an isolated segment of the rat colon at doses of 0.01, 0.1, 1, and 10 μg (in volumes of 200 μl) 30 minutes prior to injection of 10 μg of Clostridium difficile toxin A. In a follow-up study, a combined dose of 10 ng (0.01 μg) each of 4-APAA and 5-ASA was injected prior to toxin A.
[…] Colonic inflammation was assessed by quantitating luminal fluid accumulation and myeloperoxidase content in the colonic segment tissue, and by examination of colonic structural damage using hematoxylin & eosin-stained sections of the treated colonic segment.
Surgery. […]

[3] = 100 mg/kg·day in drinking water, 5 days
[4] = 100 mg/kg·day in drinking water, 5 days, toxin A 10 μg
[5] = 0.01 μg (10 ng) each, intraluminal
[6] = 0.5 mg/kg·day in drinking water, 5 days
[7] = 1 mg/kg·day in drinking water, 5 days
[8] = 10 mg/kg·day in drinking water, 5 days

Structure (SMILES) | toxin A-induced MPO activity, significance of inhibition [1, 3] | toxin A-induced luminal fluid accumulation, significance of inhibition [1, 3] | toxin A-induced structural damage of the colon (H&E) [1, 3] | doses that significantly inhibited toxin A-induced colitis [1] | toxin A-induced MPO activity, significance of inhibition [2, 5] | toxin A-induced luminal fluid accumulation, significance of inhibition [2, 5] | toxin A-induced structural damage of the colon (H&E) [2, 5] | toxin A-induced luminal fluid accumulation, significance of inhibition ([2]; 0.1 μg intraluminal) | toxin A-induced structural damage of the colon (H&E) ([2]; 0.1 μg intraluminal) | toxin A-induced MPO activity, significance of inhibition ([2]; 1.0 μg intraluminal) | toxin A-induced luminal fluid accumulation, significance of inhibition ([2]; 1.0 μg intraluminal) | toxin A-induced structural damage of the colon (H&E) ([2]; 1.0 μg intraluminal) | toxin A-induced MPO activity, significance of inhibition ([2]; 10 μg intraluminal) | toxin A-induced luminal fluid accumulation, significance of inhibition ([2]; 10 μg intraluminal) | toxin A-induced structural damage of the colon (H&E) ([2]; 10 μg intraluminal) | relative potency and interaction for inhibition of acute toxin A-induced colitis [2] | also measured
Nc1ccc(CC(=O)O)cc1 [4-APAA, (4-aminophenyl)-acetic acid] | significantly inhibited | significantly inhibited | protected the structural integrity; also recorded: strongly protected | 100 mg/kg·day | not significantly inhibited | significantly inhibited | did not prevent | significantly inhibited | preserved mucosal folding | significantly inhibited | significantly inhibited | preserved mucosal folding | significantly inhibited | significantly inhibited | strongly protected; also recorded: virtually completely protected | approximately equipotent | percent inhibition of toxin A-induced MPO activity [1, 4]: 89±8%; percent inhibition of toxin A-induced luminal fluid accumulation [1, 4]: 84±6%; percent inhibition of toxin A-induced MPO activity ([2]; 10 μg intraluminal): 91±8%; percent inhibition of toxin A-induced luminal fluid accumulation ([2]; 10 μg intraluminal): 52±4%; percent inhibition of toxin A-induced MPO activity ([2]; 100 μg intraluminal): 89±10%; percent inhibition of toxin A-induced luminal fluid accumulation ([2]; 100 μg intraluminal): 80±5%; toxin A-induced structural damage of the colon (H&E) ([2]; 100 μg intraluminal): strongly protected; lowest dose that strongly inhibited toxin A-induced colitis in this experiment ([2]; intraluminal injection 30 minutes before toxin A, 10 and 100 μg tested): 10 μg/segment
Nc1ccc(O)c(C(=O)O)c1 [5-ASA, 5-amino-2-hydroxy-benzoic acid, reference compound] |  |  |  |  | not significantly inhibited | significantly inhibited | did not prevent | significantly inhibited | partially preserved surface ulceration | significantly inhibited | significantly inhibited | mucosal folding was also largely preserved | significantly inhibited | significantly inhibited | virtually completely protected | approximately equipotent | 
O=C(O)Cc1ccc(/N=N/c2ccc(O)c(C(=O)O)c2)cc1 [APAZA™, 5-(4-carboxymethyl-phenylazo)-2-hydroxy-benzoic acid] | significantly inhibited | significantly inhibited | strongly protected | 1-100 mg/kg·day |  |  |  |  |  |  |  |  |  |  |  |  | toxin A-induced structural damage of the colon (H&E) ([1]; 0.1 mg/kg·day in drinking water, 5 days): little if any protective effect; toxin A-induced luminal fluid accumulation, significance of inhibition [1, 6]: significantly inhibited; toxin A-induced structural damage of the colon (H&E) [1, 6]: partially protected; toxin A-induced MPO activity, significance of inhibition [1, 7]: significantly inhibited; toxin A-induced luminal fluid accumulation, significance of inhibition [1, 7]: significantly inhibited; toxin A-induced structural damage of the colon (H&E) [1, 7]: strongly protected; toxin A-induced MPO activity, significance of inhibition [1, 8]: significantly inhibited; toxin A-induced luminal fluid accumulation, significance of inhibition [1, 8]: significantly inhibited; toxin A-induced structural damage of the colon (H&E) [1, 8]: strongly protected; potency relative to sulfasalazine for inhibiting toxin A-induced colitis [1]: 10-20 fold; potency relative to sulfasalazine for inhibiting toxin A-induced colitis ([1]; listed as APAZA™ compound): 10-100 fold
